Reference: patent US8288372B2, “Method for treating headache with loxapine” (Alexza Pharmaceuticals, Inc., priority 2002, dated 2012)
Read-outs that look alike come from different tables or passages of the source. Marks after values point to notes of the source that are not given here.

Experiments:
animal model = details: chronic administration of amoxapine alone; cited from earlier work
Male mice = test: Mouse writhing test (acetic acid 0.5% i.p.); details: for Effect on the number of writhes induced by acetic acid: five doses i.p.; for Dose from which the number of writhes was significantly decreased: Mann Whitney U test vs vehicle
Method: Male mice weighing 23-28 g were used in this test. Mice were injected with acetic acid (0.5% i.p.). This treatment induces a recognizable writhing response in control animals. The number of writhes is counted for 10 minutes beginning 5 minutes after injection of acetic acid. Ten mice were studied per group. The test was performed blind. Loxapine and amoxapine (dispersed in 0.2% hydroxypropylmethylcellulose, then dissolved in saline) were evaluated at five doses, administered i.p. 30 minutes before acetic acid, and compared with a vehicle control (0.2% hydroxypropylmethylcellulose in saline) group. Dosage rates for loxapine were 0.125, 0.25, 0.5, 1 and 2 mg/kg. Dosage rates for amoxapine were 1, 2, 4, 8 and 16 mg/kg. […] The data were analyzed by comparing the treated groups with the vehicle control using Mann Whitney U tests.

[1] = cited from earlier work
[2] = Toxicokinetic analysis of loxapine plasma concentration after aerosol inhalation; assay type: in vivo, beagle dogs
Method: On the first day of the repeat dose (5 day) portion of the study, plasma samples were collected for toxicokinetic analysis prior to dosing, 2 minutes after the onset of dosing, immediately after dosing, 20 minutes and 1, 3, 9 and 24 hours post dosing. Samples were stored at −80° C. until loxapine plasma concentration analysis. Loxapine plasma concentration can be measured using analytical methods well known in the art, such as LC/MS, LC/MS/MS, and/or GC/MS. […] The rate of rise in loxapine plasma concentration is found to average at least 70 ng/mL/minute at the 2 mg/kg dose level over the first 2 minutes of dosing, and 20 ng/mL/minute at the 2 mg/kg dose level over the first 10 minutes of dosing. The rate of rise in loxapine plasma concentration is found to average at least 7 ng/mL/minute at the 0.2 mg/kg dose level over the first 2 minutes of dosing, and 2 ng/mL/minute at the 0.2 mg/kg dose level over the first 10 minutes of dosing. Therapeutic plasma levels of approximately at least 0.5 ng/mL, 1 ng/mL, 2 ng/mL, 4 ng/mL, 8 ng/mL, or even 15 ng/mL are obtained within 10 minutes, 5 minutes, and even within 2 minutes at both dose levels.

[3] = test system: person with migraine headache; test: Clinical use of loxapine tablet for an acute migraine attack; assay type: in vivo, human; details: 25 mg tablet by mouth
Method: A person in generally good health notes onset of moderate pain localizing to the right side of their head over approximately 10 minutes while at home. Over the next 10 minutes, the pain becomes more severe, characterized by throbbing. The person recognizes this as a migraine headache, and also knows that for their such headaches, when untreated, tend to persist for at least a full day with nausea accompanying the headache pain and with the pain so severe as to render sleeping difficult or impossible. The person turns down the lights in their living room to avoid the pain caused by bright light entering their eyes, and turns off the radio, because noise from the radio was worsening their headache pain. They take a 25 mg loxapine tablet by mouth with a glass of water. Over the next 15 minutes, the headache pain begins to […], and the person's stomach is mildly upset. […] Their stomach no longer bothers them. […] Light and sound are no longer bothersome. They eat a normal meal without stomach upset.

[4] = test system: subjects with a history of moderate to severe migraine headache; test: Phase II clinical trial of loxapine for the treatment of acute migraine attacks; assay type: in vivo, human
Description: The study methodology is a double-blind, randomized, placebo-controlled dose-ranging trial. Healthy male and female subjects 18 to 65 years of age, inclusive, with a history of moderate to severe migraine headache by self-report (migraine with or without aura) with average frequency of 1-6 attacks per month during the past 3 months are recruited to participate in the study. Those subjects meeting entry criteria are enrolled and randomized to receive one of the following treatments: placebo, loxapine rapid delivery system ˜1.25 mg, loxapine rapid delivery system ˜2.5 mg, loxapine rapid delivery system ˜5 mg, loxapine rapid delivery system ˜10 mg. Higher loxapine doses may also be tested if found safe in a Phase I clinical trial. The loxapine rapid delivery system is a means of delivering loxapine to a migraine patient such that maximum plasma drug concentrations are obtained within 1 hour, 30 minutes, 15 minutes, 10 minutes, 5 minutes, or even 2 minutes or less. The condensation aerosol delivery system described above with respect to a Phase I clinical trial is one such system. Other rapid delivery systems include various durations of intravenous infusions or injections.
Immediately prior to receiving the treatment to which the patient has been randomized, the patient rates their severity of headache and nausea on a 4-point scale (0—absent, 1—mild, 2—moderate, 3—severe) and photophobic and phonophobia on a 2-point scale (Does light make your headache worse? 0—No, 1—Yes; Does noise make your headache worse? O—No, 1—Yes). Alternatively, an 11-point visual-analogue scale (0—none to 10—maximally severe) or other appropriate scale can be used. Subjects are asked to repeat these ratings at timepoints of 15 and 30 minutes following treatment, and also at 1, 2, 4, 8, 12 and 24 hours post treatment. Subjects are further asked for their global assessment of treatment efficacy (1—very poor to 5—very good) at 120 minutes and 24 hours post treatment. Concomitant medications, if any, are also recorded.

Beagle Dog = details: in vivo
[5] = 1 mg/kg i.p. 30 minutes before acetic acid, first or second experiment
[6] = 2 mg/kg i.p. 30 minutes before acetic acid, first or second experiment

## Clc1ccc2c(c1)C(N1CCNCC1)=Nc1ccccc1O2 [Amoxapine, 2-chloro-11(1-piperazinyl)dibenz(b,f) (1,4) oxazepine]
Animal model
  Latency of the tail-flick: no change
Male mice; [5]
  Reduction in acetic acid writhing, percentage of control vehicle pretreatment: −23% NS
Male mice; [6]
  Reduction in acetic acid writhing, percentage of control vehicle pretreatment: −39% *
Male mice; 4 mg/kg i.p. 30 minutes before acetic acid, first or second experiment
  Reduction in acetic acid writhing, percentage of control vehicle pretreatment: −71% ***
Male mice; 8 mg/kg i.p. 30 minutes before acetic acid, first or second experiment
  Reduction in acetic acid writhing, percentage of control vehicle pretreatment: −93% ***
Male mice; 16 mg/kg i.p. 30 minutes before acetic acid
  Reduction in acetic acid writhing, percentage of control vehicle pretreatment: −100% ***
Male mice
  Effect on the number of writhes induced by acetic acid: dose-dependently decreased the number of writhes
Male mice; i.p.
  Dose from which a clear / marked effect on writhing was observed: ≥ 4 mg/kg
  Dose from which the number of writhes was significantly decreased: ≥ 2 mg/kg
Male mice; male, mouse, in vivo, ip
  Dose from which sedation was observed: ≥ 2 mg/kg
[1]; lowest used oral dose 50 mg (Jue et al. 1982)
  Cmax: ~30 ng/mL
[1]; oral 100 mg (Calvo et al. 1985)
  Cmax: ~50 ng/mL
[1]; oral 100 mg
  Tmax after oral administration: ~1.5 h
[1]; repeated amoxapine dosing (Calvo et al. 1985)
  Blood levels after repeated dosing: 30 to 300 ng/mL

## CN1CCN(C2=Nc3ccccc3Oc3ccc(Cl)cc32)CC1 [Loxapine, 2-chloro-11(4-methyl-1-piperazinyl)dibenz(b,f) (1,4) oxazepine]
[2]; 0.2 mg/kg, first 2 minutes of dosing
  Average rate of rise in loxapine plasma concentration: at least 7 ng/mL/minute
[2]; 0.2 mg/kg, first 10 minutes of dosing
  Average rate of rise in loxapine plasma concentration: ≥ 2 ng/mL/min
[2]; 2 mg/kg, first 2 minutes of dosing
  Average rate of rise in loxapine plasma concentration: at least 70 ng/mL/minute
[2]; 2 mg/kg, first 10 minutes of dosing
  Average rate of rise in loxapine plasma concentration: ≥ 20 ng/mL/min
[2]; aerosol inhalation, first day of repeat dose
  Time to peak plasma concentration after end of drug inhalation: ≤ 2 min
Male mice; 0.125 mg/kg i.p. 30 minutes before acetic acid
  Reduction in acetic acid writhing, percentage of control vehicle pretreatment: −57% **
Male mice; 0.25 mg/kg i.p. 30 minutes before acetic acid
  Reduction in acetic acid writhing, percentage of control vehicle pretreatment: −90% ***
Male mice; [5]
  Reduction in acetic acid writhing, percentage of control vehicle pretreatment: −100% ***
Male mice; [6]
  Reduction in acetic acid writhing, percentage of control vehicle pretreatment: −99% ***
Male mice
  Effect on the number of writhes induced by acetic acid: dose-dependently decreased the number of writhes
Male mice; i.p.
  Dose from which a clear / marked effect on writhing was observed: ≥ 0.25 mg/kg
  Dose from which the number of writhes was significantly decreased: ≥ 0.125 mg/kg
Male mice; i.p., mice
  Dose from which sedation was observed: ≥ 0.25 mg/kg
[3]
  Signs of headache after brief nap: without any signs of headache
[3]; no further medication
  Return of headache: does not return over the next 72 hours
[3]; over the 1 hour following the first 15 minutes
  Headache pain: diminishes slowly
[4]; 5 mg and 10 mg, rapid delivery system, within 1 hour
  Therapeutic effect of the drug: strong therapeutic effect
[4]; 5 mg and 10 mg, at 1 hour, even 30 minutes, sometimes 15 minutes
  Severity of headache in treated patients: markedly lower than prior to treatment
[4]; 5 mg or 10 mg, at 1 hour, statistically significant at p<0.05 assuming large sample
  Headache relief versus placebo: marked advantage
[4]; 5 mg or 10 mg, unless placebo patients get rescue medication
  Persistence of advantage versus placebo: persists at 2 hours, 4 hours, 8 hours, and even 24 hours
Beagle Dog
  Food consumption: roughly normal
  Gross pathology findings at necropsy: No treatment related findings
  Histopathological examination of gross lesions: no treatment related findings
  Histopathological examination of larynx, trachea, mainstem bronchi, lungs including bronchi: No treatment related abnormalities
  Signs of bronchoconstriction (wheezing, prolonged expiratory phase, cough): no signs of bronchoconstriction
[1]; oral dose of 25 mg, a different study
  Cmax for loxapine only: 10 to 12 ng/mL
[1]; oral, manufacturer studies (Lederle Laboratories)
  Tmax after oral administration: 2 to 3 h
